Results reported in patent US20210260009A1, “METHODS AND COMPOSITIONS FOR THE TREATMENT OF A RENAL DISEASE” (priority 2020, published 2021).

Assays:
WT E. coli cultures = assay: Indole in E. coli culture supernatants (Kovac's reagent and LC-MS/MS); type: cell-based; settings: LB broth supplemented
Procedure: (§1) E. coli K-12 BW25113 strain were used in all the experiments (H2S production, indole production and in vivo experiments). For technical reasons, E. coli K-12 MG1655 was used in the cloning process to generate ΔdecR and tnaA-his, and E. coli K-12 W3110 was used for expressing and purifying TnaA-His. Bacteria were grown in LB broth (Merck) at 37° C. with shaking (250 rpm) aerobically or without shaking anaerobically and where mentioned, LB was supplemented with L-cysteine (Sigma-Aldrich), sodium hydrosulfide (Sigma-Aldrich) and/or L-tryptophan (Sigma-Aldrich). For selection on LB+Chloramphenicol (Cm) agar plates, a concentration of 10 μg/ml Cm was used. The E. coli tnaA739::kan strain was obtained from Yale University Coli Genetic Stock Center (CGSC) as part of the Keio collection (Baba et al., 2006). […]
The TMT fractions were analyzed by LC-MS3 on an Orbitrap Fusion™ Lumos™ Tribrid™ mass spectrometer. Labelled peptide samples were analyzed with an LC-MS3 data collection strategy (McAlister G C et al (2014) Anal. Chem. 86:7150-8) on an Orbitrap Fusion mass spectrometer (Thermo Fisher Scientific) equipped with a Thermo Easy-nLC 1200 for online sample handling and peptide separations. […] E. coli TnaA-His samples were analyzed at the Mass Spectrometry and Proteomics Resource Laboratory. […]

E. coli lysates = assay: Pull-down of S-sulfhydrated proteins from E. coli lysates (Coomassie / silver stain)
E. coli = E. coli sulfide (H2S) production from L-cysteine in culture (lead acetate, methylene blue) and growth; type: cell-based; settings: LB supplemented with cysteine, aerobic or anaerobic
Procedure: as §1, with “used.” for “used. The E. coli tnaA739::kan strain was obtained from Yale University Coli Genetic Stock Center (CGSC) as part of the Keio collection (Baba et al., 2006).”
Lead acetate paper was prepared by incubating pre-cut Whatman paper in 20 mM lead acetate solution for 20 min at room temperature and then was dried for 20 min at 110° C. and kept in the dark (Hine and Mitchell, 2017). […] 200 μl were plated in 96-well plates in duplicate and analyzed by lead acetate sulfide assay as described above. […] The samples were vortexed briefly and incubated for 20 min at 37° C., thereafter they were centrifuged for 4 min at max speed and the supernatants were transferred to a 96-well plate to determine absorbance at OD670 nm. […] Then 300 μl of DPD/FeCl3 were added and the samples were incubated at 37° C. for 20 min, centrifuged for 4 min at max speed and absorbance was measured in OD670 nm. […]

E. coli TnaA = biological target: T1, E. coli TnaA (Escherichia coli, UniProt P0A853); assay: TnaA S-sulfhydration by pull-down and Western blot (E. coli lysates, purified TnaA); type: biochemical
T1 construct: made in house; host or cells: E. coli K-12 carrying the chromosomal tnaA-his allele under its native promoter (W3110 for purification)
Procedure: TnaA purity was determined by Coomassie blue staining.

[1] = biological target: T2, E. coli apo-tryptophanase (TnaA) (Escherichia coli, UniProt P0A853); assay: In vitro tryptophanase assay (indole production by purified TnaA, Kovac's reagent); type: biochemical
T2 construct: purchased Sigma-Aldrich
Procedure: E. coli apo-tryptophanase (Sigma-Aldrich) was resuspended in 1 ml 100 mM potassium phosphate pH 8 buffer, aliquoted and kept at −20° C. 5 μl of apo-tryptophanase were added to 120 μl of 100 mM potassium phosphate pH 8 buffer with 1 mM pyrodxal-5-phosphate (PLP) and various treatments (NaCl, NaHS, L-cysteine, DTT or Na2S4) and incubated for 45 min at 37° C. Then 125 μl of 100 mM potassium phosphate with 5 mM L-tryptophan were added and the samples were incubated for 1 h at 37° C. Then 250 μl of 20% TCA were added to the samples, followed by a 15 min incubation on ice to precipitate TnaA. […] For the WT and ΔdecR TnaA activity assay, TnaA was purified from 10 ml bacterial cultures grown for 3 h in LB and then supplemented with 5 mM L-cysteine for 1 h, using the His-Spin protein miniprep kit (Zymo research). The purified protein was diluted 1:10 in 250 μl of 100 mM potassium phosphate pH 8 buffer with 1 mM PLP and 5 mM L-tryptophan and incubated for 1 h at 37° C., further processing was performed as mentioned above. TnaA activity was normalized to purified protein concentration, measured using BCA assay kit (Thermo Fisher).

[2] = treated E. coli lysates, Western blot

T1 sequence (P0A853 other isoform, or with tags, fused parts or gaps): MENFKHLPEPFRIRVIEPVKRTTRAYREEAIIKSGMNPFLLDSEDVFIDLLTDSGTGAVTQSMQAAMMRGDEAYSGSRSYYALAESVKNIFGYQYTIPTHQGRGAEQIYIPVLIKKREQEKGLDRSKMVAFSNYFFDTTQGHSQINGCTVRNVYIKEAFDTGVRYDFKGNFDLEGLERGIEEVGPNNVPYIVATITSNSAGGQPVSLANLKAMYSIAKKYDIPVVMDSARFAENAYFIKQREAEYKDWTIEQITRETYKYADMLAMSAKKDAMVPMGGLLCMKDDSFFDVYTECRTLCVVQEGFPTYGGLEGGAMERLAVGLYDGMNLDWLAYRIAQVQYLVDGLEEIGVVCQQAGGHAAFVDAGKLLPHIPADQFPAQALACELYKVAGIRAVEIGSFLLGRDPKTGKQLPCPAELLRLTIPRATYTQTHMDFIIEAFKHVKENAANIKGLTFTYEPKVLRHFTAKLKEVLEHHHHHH
T2 sequence (P0A853 whole entry): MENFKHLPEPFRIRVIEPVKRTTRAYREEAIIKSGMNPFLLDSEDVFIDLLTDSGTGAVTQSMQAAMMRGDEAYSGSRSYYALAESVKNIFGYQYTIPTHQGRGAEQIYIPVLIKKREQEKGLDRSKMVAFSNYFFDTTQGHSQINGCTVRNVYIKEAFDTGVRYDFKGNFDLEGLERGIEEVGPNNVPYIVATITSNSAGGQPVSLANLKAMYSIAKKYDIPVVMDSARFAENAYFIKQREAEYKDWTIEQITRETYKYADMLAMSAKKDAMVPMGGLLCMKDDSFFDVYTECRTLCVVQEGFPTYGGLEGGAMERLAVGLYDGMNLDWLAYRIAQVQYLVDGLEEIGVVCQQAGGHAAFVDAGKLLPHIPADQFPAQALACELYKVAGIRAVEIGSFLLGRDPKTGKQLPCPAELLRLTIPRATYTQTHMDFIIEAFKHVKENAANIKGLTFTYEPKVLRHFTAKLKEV

Row | Structure (SMILES) | indole concentrations in the supernatants (WT E. coli cultures) | S-sulfhydration of proteins (E. coli lysates; treatment of bacterial lysates) | TnaA S-sulfhydration (E. coli TnaA; [2]) | also measured
1 | N[C@@H](CS)C(=O)O [cysteine, L-cysteine] | reduced indole concentrations |  |  | S-sulfhydration of proteins (E. coli lysates; lysates of E. coli grown in supplemented media vs LB alone): higher level of S-sulfhydration; E. coli growth (E. coli): without any effects on growth; sulfide production by E. coli (E. coli; lead acetate assay): dose-dependent manner
2 | S [NaHS, sodium hydrosulfide] | reduced indole concentrations | induced higher S-sulfhydration levels | increased | 
3 | [Na+].[Na+].[S-]SS[S-] [Na2S4, disodium tetrasulfide] |  |  |  | reduction of TnaA enzymatic activity [1]: 60%; TnaA S-sulfhydration (E. coli TnaA; purified E. coli TnaA, incubation): led to TnaA S-sulfhydration
4 | OO [H2O2] |  | reduced the detection of S-sulfhydration proteins | reduced | 
5 | O[C@H](CS)[C@H](O)CS (racemic) [DTT, dithiothreitol] |  |  |  | increase of TnaA activity ([1]; assay control): 318%
